These results are taken from patent US12637479B2, “Low energy gap small molecule material and organic optoelectronic device using the same” (Raynergy Tek Incorporation, priority 2021, dated 2026).

Type in all cases: physicochemical
Data set [1] is described as follows: UV-Vis-NIR absorption spectra in chloroform solution. How it is done:
(§1) Please refer to FIG. 2 to FIG. 4 and Table 1.
(§2) The highest occupied molecular orbital (HOMO) is calculated from HOMO=−|4.71÷E^xo−E^ferroncene|eV. The optical energy gap

Data set [2] can be described thus: UV-Vis-NIR absorption spectra in film, optical energy gap from absorption onset. As to the method: as §1, §2
[formula] of the material is known from the absorption onset position
(§3) [formula] of the UV-Vis-NIR absorption spectrum in film state. The lowest unoccupied molecular orbital (LUMO) is calculated from LUMO=HOMO+Eg eV.

A short description of data set [3]: Energy levels by cyclic voltammetry (HOMO, LUMO). How it is done: as §2, §3
Data set [4] is described as follows: Solubility measurement in o-xylene. As to conditions: 8 mg sample in 1 mL o-xylene. From the text: Among them, “O” means complete dissolution, and “X” means incomplete dissolution. […] In the art, it is an industry trend to use non-halogenated green solvents. Green solvents generally come from renewable resources or can be degraded by soil organisms or other substances, have a short half-life, and are easily decayed into low-toxic and non-toxic substances. Therefore, green solvents are generally less harmful to biological health and the environment than general solvents that are easily chlorinated or highly toxic. Green solvents are also called environmentally friendly solvents. O-xylene is a non-halogen green solvent.

`CCCCCCCCCCCCc1cc(-c2c3c(c(-c4cc(CCCCCCCCCCCC)c(-c5cc6c(s5)-c5sc(-c7sc(-c8c9c(c(-c%10cc(CCCCCCCCCCCC)c(/C=C%11\C(=O)c%12cc(F)c(F)cc%12C%11=C(C#N)C#N)s%10)c%10nn(CC(CC)CCCC)nc8%10)N=S=N9)cc7CCCCCCCCCCCC)cc5C6(c5cc(CCCCCC)cc(CCCCCC)c5)c5cc(CCCCCC)cc(CCCCCC)c5)s4)c4nn(CC(CC)CCCC)nc24)N=S=N3)sc1/C=C1\C(=O)c2cc(F)c(F)cc2C1=C(C#N)C#N` (centres unmarked) [Q4]: the “λsoln^max” value in data set [1] (chloroform solution) turned out to be 965 nm. Further, the ε in data set [1] (maximum absorption coefficient) was 1.41 10^5 cm^−1 M^−1. In data set [2] (film), the “λfilm^max” value turned out to be 1029 nm and the “λfilm^onset” value was 1455 nm. Besides, the “Eg^opt” value in data set [2] (from absorption onset in film state) turned out to be 0.85 eV. In addition, the LUMO in data set [3] (LUMO=HOMO+Eg) was −4.32 eV. In addition, the HOMO in data set [3] (cyclic voltammetry) was −5.17 eV. In addition, the Solubility entry in data set [4] is given as “◯”.
